Source: publication PMC6629894, “Ruthenium Complexes Containing Heterocyclic Thioamidates Trigger Caspase-Mediated Apoptosis Through MAPK Signaling in Human Hepatocellular Carcinoma Cells” (Frontiers in Oncology, 2019)
Entries after “also recorded” stand apart in the source; their conditions may differ. Read-outs that look alike come from different tables or passages of the source.

Assays:
[1] = tested on: K-562 (human chronic myelogenous leukemia); assay: Alamar blue cytotoxicity assay, 72 h; assay type: cell-based
Excerpt: (§1) The cell lines HepG2 (human hepatocellular carcinoma), HL-60 (human promyelocytic leukemia), K-562 (human chronic myelogenous leukemia), B16-F10 (mouse melanoma), MCF-7 (human breast carcinoma), HCT116 (human colon carcinoma), HSC-3 (human oral squamous cell carcinoma), SCC-4 (human oral squamous cell carcinoma), MRC-5 (human lung fibroblast), WT SV40 MEF (wild-type immortalized mouse embryonic fibroblast), and BAD KO SV40 MEF (BAD gene knockout immortalized mouse embryonic fibroblasts) were obtained from the American Type Culture Collection (ATCC, Manassas, VA, USA). Cells were cultured in RPMI 1640 medium (Gibco-BRL, Gaithersburg, MD, USA) with 10% fetal bovine serum (Life, Carlsbad, CA, USA), 2 mM L-glutamine (Vetec Química Fina, Duque de Caxias, RJ, Brazil) and 50 μg/mL gentamycin (Life). For all experiments, adherent cells were collected by treatment with 0.25% trypsin-EDTA solution (Gibco-BRL). All cell lines were cultured in flasks at 37°C in 5% CO2 and were subcultured every 3–4 days to maintain exponential growth. All cell lines were tested for mycoplasma using a mycoplasma staining kit (Sigma-Aldrich Co.) to validate that the cells that were used were free from contamination.
(§2) Cytotoxicity was measured colorimetrically using an Alamar blue method that was performed as previously described ([20], [21]). Cells were seeded in 96-well plates for all experiments (7 × 10^4 cells/mL for adherent cells or 3 × 10^5 cells/mL for suspension cells in 100 μL of medium) and incubated overnight at 37°C with 5% CO2 to allow for adherence. The complexes were dissolved in 0.5% dimethyl sulfoxide (DMSO, Vetec Química Fina) at eight different concentrations from 0.19 to 25 μg/mL and were added to each well and incubated for 72 h. The negative control was treated with the vehicle (0.5% DMSO) that was used to solubilize and dilute the complexes. […] Four (for cell lines) or 24 h (for PBMCs) before the end of incubation, 20 μL of a stock solution (0.312 mg/mL) of resazurin (Sigma-Aldrich Co.) was added to each well. Absorbance was measured at 570 and 600 nm using a SpectraMax 190 Microplate Reader (Molecular Devices, Sunnyvale, CA, USA).

B16-F10 (mouse melanoma) = assay: Alamar blue cytotoxicity assay, 72 h; assay type: cell-based
Excerpt: as §1, §2

[2] = tested on: HepG2 (human hepatocellular carcinoma); assay: Alamar blue cytotoxicity assay, 72 h; assay type: cell-based
Excerpt: as §1, §2

[3] = tested on: WT SV40 MEF (wild-type immortalized mouse embryonic fibroblast); assay: Alamar blue cytotoxicity assay, 72 h; assay type: cell-based; settings: read-out: IC50 and 95% CI
[4] = tested on: HepG2 cells engrafted in C.B-17 SCID mice; assay: Human hepatocellular carcinoma xenograft model; assay type: in vivo; settings: for mean tumor mass: 21 days (negative control 0.6 ± 0.1 g)
Description: A total of 64 C.B-17 severe-combined immunodeficiency (SCID) mice (females, 25–30 g) were obtained and maintained at the animal facilities from Gonçalo Moniz Institute-FIOCRUZ (Salvador, Bahia, Brazil). Animals were housed in cages with free access to food and water. All animals were kept under a 12:12-h light-dark cycle (lights on at 6:00 a.m.). The animals were treated according to the ethical principles for animal experimentation of SBCAL (Brazilian Association of Laboratory Animal Science), Brazil. The Animal Ethics Committee of Gonçalo Moniz Institute–FIOCRUZ (Salvador, Bahia, Brazil) approved the experimental protocol (number 06/2015). Animal welfare was monitored throughout the study, and the pain and suffering were minimized.

HepG2 cells = assay: Trypan blue exclusion assay; assay type: cell-based, human
Description: For all subsequent in vitro experiments, 2 mL of a suspension of HepG2 cells were seeded (7 × 10^4 cells/mL) and incubated in a 24-well plate overnight to allow the cells to adhere to the plate surface.
In the trypan blue exclusion assay, the number of viable cells and non-viable cells (stained with trypan blue) were counted. Briefly, 90 μL was removed from the cell suspension, and 10 μL of trypan blue (0.4%) was added. Cell counting was performed using a light microscope with a hemocytometer filled with an aliquot of the homogenized cell suspension.

[5] = for Differential leukocytes: Eosinophils / Differential leukocytes: Lymphocytes / Differential leukocytes: Monocytes / Differential leukocytes: Neutrophils / Erythrocytes / Total leukocytes: peripheral blood
Description: A human hepatocellular carcinoma xenograft model was generated by subcutaneously implanting HepG2 cells (1 × 10^7 cells per 500 μL) into the left front armpit of C.B-17 SCID mice. […] The treatments were initiated one day after the cancer cell injection. The animals were treated intraperitoneally (200 μL per animal) once a day for 21 consecutive days. On the 22nd day, the animals were anesthetized, and peripheral blood samples were collected from the brachial artery. Animals were euthanized by an anesthetic overdose, and tumors were excised and weighed.
To evaluate the toxicological aspects, mice were weighed at the beginning and at the end of the experiment. […] Hematological analysis was performed using an Advia 60 hematology system (Bayer, Leverkusen, Germany).

[6] = tested on: BAD KO SV40 MEF (BAD gene knockout immortalized mouse embryonic fibroblasts); assay: Alamar blue cytotoxicity assay, 72 h; assay type: cell-based; settings: read-out: IC50 and 95% CI
[7] = tested on: multicellular spheroids formed from HepG2 cells; assay: 3D multicellular spheroid culture, Alamar blue, 72 h; assay type: cell-based, human; settings: read-out: IC50 and 95% CI, 3D HepG2 spheroids
Description: HepG2 cells were cultivated as 3D multicellular spheroids in a 96-well plate with a cell-repellent surface. Briefly, 100 μL of a suspension of cells (5 × 10^5 cells/mL) was seeded into a 96-well plate with a cell-repellent surface (Greiner Bio-One, Kremsmünster, Austria) and cultured in RPMI 1640 medium with 10% fetal bovine serum, 2 mM glutamine plus 3% Matrigel (BD Biosciences, San Jose, CA, EUA) and 50 μg/mL gentamycin at 37°C with 5% CO2. Spheroids with stable structures formed after 3 days. Then, the complexes were dissolved in 0.5% DMSO at eight different concentrations from 0.19 to 25 μg/mL, were added to each well and incubated for 72 h. […] At the end of the experiment, morphological changes were examined by light microscopy (Olympus BX41, Tokyo, Japan) using Image-Pro software (Media Cybernetics, Inc. Silver Spring, USA), and cytotoxicity was quantified with the Alamar blue method as described above.

[8] = 0.5 and 1 mg/kg/day i.p., 21 days

Compound: F[P-](F)(F)(F)(F)F.[Ru+2].[S-]C1=NCCS1.c1ccc(-c2ccccn2)nc1.c1ccc(P(CCCCP(c2ccccc2)c2ccccc2)c2ccccc2)cc1 [Complex 2, [Ru(tzdt)(bipy)(dppb)]PF6]
- Selectivity index (SI = IC50 [noncancerous cells]/IC50 [cancer cells]) ([1]; MRC-5 vs K-562): 1.8
- Selectivity index (SI = IC50 [noncancerous cells]/IC50 [cancer cells]) ([1]; PBMCs vs K-562): 2.9
- IC50 ([1]; read-out: IC50 and 95% CI, K-562, 72 h): 900 nM
- Selectivity index (SI = IC50 [noncancerous cells]/IC50 [cancer cells]) (B16-F10 (mouse melanoma); MRC-5 vs B16-F10): 1.2
- Selectivity index (SI = IC50 [noncancerous cells]/IC50 [cancer cells]) (B16-F10 (mouse melanoma); PBMCs vs B16-F10): 2.0
- Selectivity index (SI = IC50 [noncancerous cells]/IC50 [cancer cells]) ([2]; MRC-5 vs HepG2): 0.8
- Selectivity index (SI = IC50 [noncancerous cells]/IC50 [cancer cells]) ([2]; PBMCs vs HepG2): 1.4
- IC50 [3]: 2000 nM
- mean tumor mass ([4]; 0.5 mg/kg/day i.p.): 0.3 ± 0.1 g
- fibrosis in tumor histology ([4]; 1 mg/kg/day): most evident fibrosis
- mean tumor mass ([4]; 1 mg/kg/day i.p.): 0.2 ± 0.1 g
- tumor mass inhibition rates [4, 8]: 46.9–67.7%
- reduction of the number of viable cells vs negative control (HepG2 cells; 2 μM, 24 h): 42.1%
- reduction of the number of viable cells vs negative control (HepG2 cells; 2 μM, 48 h): 67.3%
- reduction of the number of viable cells vs negative control (HepG2 cells; 4 μM, 24 h): 58.6%
- reduction of the number of viable cells vs negative control (HepG2 cells; 4 μM, 48 h): 93.1%
- Initial body weight ([5]; 0.5 mg/kg/day): 20.4 ± 0.4 g
- Final body weight ([5]; 0.5 mg/kg/day i.p., 21 days): 20.8 ± 0.4 g
- Heart relative weight ([5]; 0.5 mg/kg/day i.p., 21 days): 0.6 ± 0.1 g/100 g body weight
- Kidney relative weight ([5]; 0.5 mg/kg/day i.p., 21 days): 1.5 ± 0.1 g/100 g body weight
- Liver relative weight ([5]; 0.5 mg/kg/day i.p., 21 days): 4.7 ± 0.2 g/100 g body weight
- Lung relative weight ([5]; 0.5 mg/kg/day i.p., 21 days): 0.8 ± 0.1 g/100 g body weight
- Survival ([5]; 0.5 mg/kg/day i.p., 21 days): 10/10
- Initial body weight ([5]; 1 mg/kg/day): 19.9 ± 0.5 g
- Final body weight ([5]; 1 mg/kg/day i.p., 21 days): 19.4 ± 0.5 g
- Heart relative weight ([5]; 1 mg/kg/day i.p., 21 days): 0.6 ± 0.1 g/100 g body weight
- Kidney relative weight ([5]; 1 mg/kg/day i.p., 21 days): 1.5 ± 0.1 g/100 g body weight
- Liver relative weight ([5]; 1 mg/kg/day i.p., 21 days): 4.6 ± 0.1 g/100 g body weight
- Lung relative weight ([5]; 1 mg/kg/day i.p., 21 days): 0.8 ± 0.1 g/100 g body weight
- Survival ([5]; 1 mg/kg/day i.p., 21 days): 10/10
- hepatotoxicity: focal areas of coagulation necrosis in the liver (histology) [5, 8]: more evident; also recorded: evidence of hepatotoxicity
- Differential leukocytes: Eosinophils ([5]; 0.5 mg/kg/day, 21 days): 1.3%
- Differential leukocytes: Lymphocytes ([5]; 0.5 mg/kg/day, 21 days): 39.9%
- Differential leukocytes: Monocytes ([5]; 0.5 mg/kg/day, 21 days): 39.1%
- Differential leukocytes: Neutrophils ([5]; 0.5 mg/kg/day, 21 days): 21.1%
- Erythrocytes ([5]; 0.5 mg/kg/day, 21 days): 8.5 ± 1.0 10^6cells/μL
- Total leukocytes ([5]; 0.5 mg/kg/day, 21 days): 2.5 ± 0.4 10^3cells/μL
- Differential leukocytes: Eosinophils ([5]; 1 mg/kg/day, 21 days): 1.1%
- Differential leukocytes: Lymphocytes ([5]; 1 mg/kg/day, 21 days): 32.2%
- Differential leukocytes: Monocytes ([5]; 1 mg/kg/day, 21 days): 32.5%
- Differential leukocytes: Neutrophils ([5]; 1 mg/kg/day, 21 days): 34.4%
- Erythrocytes ([5]; 1 mg/kg/day, 21 days): 7.8 ± 0.8 10^6cells/μL
- Total leukocytes ([5]; 1 mg/kg/day, 21 days): 2.7 ± 0.4 10^3cells/μL
- IC50 [6]: 2900 nM
- IC50 [7]: 7300 nM
